Measurements from US8513232B2, “Substituted spirocyclic piperidine derivatives as histamine-3 (H3) receptor ligands” (Cephalon, Inc., priority 2008, dated 2013).
Several values for one entry are separate records, joined by “and”; a condition that tells them apart may be missing. Identical values can stand only once. Like-named read-outs stand apart in the source and are kept apart here.

What was measured:
human H3 receptor = biological target: T1, human H3 receptor (Homo sapiens, UniProt Q9Y5N1); assay: Human H3 radioligand binding ([3H]-N-alpha-methylhistamine, SPA)
T1 construct: expressed in transfected cells
Summary of the method: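 SPA competition binding on membranes from CHO cells stably expressing human H3 receptor (10 μg protein/well) with ~1 nM [3H]-N-alpha-methylhistamine and compound at 0.01 nM-30 μM. Incubation 4 h at room temperature in 50 mM Tris-HCl pH 7.4, 5 mM MgCl2, 0.1% BSA; non-specific binding defined with 10 μM clobenpropit.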

[1] = biological target: T2, rat histamine H3 receptor (Rattus norvegicus, UniProt Q9QYN8); assay: Rat H3 radioligand binding ([3H]-N-alpha-methylhistamine, SPA)
T2 construct: encoding the entire 445-amino-acid rat histamine H3 receptor; expressed in transfected cells; membrane preparation
Summary of the method: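 Membranes from CHO-A3 cells stably expressing full-length rat H3 receptor (10 μg protein/well) incubated 4 h at room temperature, protected from light, with ~1 nM [3H]-N-alpha-methylhistamine and compound (0.01 nM-30 μM) in 50 mM Tris HCl pH 7.4, 5 mM MgCl2, 0.1% BSA. Binding read by SPA; 10 μM clobenpropit defined non-specific binding.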

[2] = human H3 binding, Table D, read-out: Human H3 Ki
[3] = rat H3 binding, Table D, read-out: Rat H3 Ki
[4] = Human H3 binding, Table B, Examples 136-362, read-out: hum H3 binding Ki
[5] = Rat H3 binding, Table B, Examples 136-362, read-out: rat H3 binding Ki
[6] = Table A, human H3 binding, read-out: Human Ki
[7] = Table A, rat H3 binding, read-out: Rat Ki

T1 sequence (Q9Y5N1 whole entry): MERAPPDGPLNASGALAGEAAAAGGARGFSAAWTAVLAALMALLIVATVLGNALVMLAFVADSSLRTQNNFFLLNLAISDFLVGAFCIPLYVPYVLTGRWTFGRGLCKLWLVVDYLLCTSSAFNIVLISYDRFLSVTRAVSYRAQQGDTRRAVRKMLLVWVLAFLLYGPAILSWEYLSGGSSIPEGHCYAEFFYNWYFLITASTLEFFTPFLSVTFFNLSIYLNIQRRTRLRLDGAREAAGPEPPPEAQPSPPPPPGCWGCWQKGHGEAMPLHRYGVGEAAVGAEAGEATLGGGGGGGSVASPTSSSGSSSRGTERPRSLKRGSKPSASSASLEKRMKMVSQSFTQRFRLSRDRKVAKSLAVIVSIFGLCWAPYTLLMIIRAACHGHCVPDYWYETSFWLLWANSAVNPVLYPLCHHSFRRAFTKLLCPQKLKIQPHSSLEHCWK
T2 sequence (Q9QYN8 whole entry): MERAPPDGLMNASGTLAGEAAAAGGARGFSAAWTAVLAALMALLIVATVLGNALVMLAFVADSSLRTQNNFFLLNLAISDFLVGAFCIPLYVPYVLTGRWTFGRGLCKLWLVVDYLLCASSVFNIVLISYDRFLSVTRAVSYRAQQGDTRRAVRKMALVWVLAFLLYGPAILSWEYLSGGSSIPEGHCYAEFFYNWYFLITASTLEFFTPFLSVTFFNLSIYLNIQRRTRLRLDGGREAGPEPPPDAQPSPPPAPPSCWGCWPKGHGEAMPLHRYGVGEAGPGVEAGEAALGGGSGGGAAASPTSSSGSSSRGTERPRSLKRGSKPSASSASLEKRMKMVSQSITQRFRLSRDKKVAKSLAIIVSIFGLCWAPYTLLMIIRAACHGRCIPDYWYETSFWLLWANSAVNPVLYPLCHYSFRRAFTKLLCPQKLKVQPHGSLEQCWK

Row | Compound | Ki (human H3 receptor; [2]) [nM] | melting point | Ki [1, 3] [nM] | Ki (human H3 receptor; [4]) [nM] | Ki [1, 5] [nM] | further results
1 | Cc1noc(CCc2ccc3c(c2)COC2(CCN(C4CCC4)CC2)O3)n1 [Example 676] | < 200 | 74 to 76 °C | < 200 |  |  | 
2 | Cc1cc(=O)[nH]cc1-c1ccc2c(c1)CCC1(CCN(C3CCC3)CC1)O2 [Example 771] | < 200 | 252 to 254 °C | < 200 |  |  | 
3 | COCCNC(=O)c1ccc(-c2ccc3c(c2)COC2(CCN(C4CCC4)CC2)O3)cc1OC [Example 634] | < 200 | 50 to 52 °C | < 200 |  |  | 
4 | CN(C(=O)N1CCN(c2ccc3c(c2)COC2(CCN(C4CCC4)CC2)O3)CC1)c1ccccc1 [Example 293] |  | 107 to 110 °C |  | < 200 | < 200 | 
5 | N#Cc1ccc(NC(=O)Nc2ccc3c(c2)COC2(CCN(C4CCC4)CC2)O3)cc1 [Example 157] |  | 170 to 172 °C |  | < 200 | < 200 | 
6 | CC(C)NC(=O)N1CCN(c2ccc3c(c2)COC2(CCN(C4CCC4)CC2)O3)CC1 [Example 279] |  | 206.5 to 207.5 °C |  | < 200 | < 200 | 
7 | c1cc2c(cc1OCc1nnc(C3CC3)o1)CCC1(CCN(C3CCC3)CC1)O2 [Example 671] | < 200 | 158 to 159 °C | < 200 |  |  | 
8 | OC1CCC(c2ccc3c(c2)COC2(CCN(C4CCC4)CC2)O3)CC1 (stereo not drawn) [Example 498] |  | 150 to 153 °C |  |  |  | Ki (human H3 receptor; read-out: Human H3 Ki): < 200 nM; Ki ([1]; read-out: Rat H3 kI): < 200 nM
9 | CNC(=O)c1ccc(-c2cc3c(cc2Cl)OC2(CCN(C4CCC4)CC2)OC3)cc1F [Example 272] |  | 70 to 72 °C |  | < 200 | < 200 | 
10 | O=C(c1ccc(-c2ccc3c(c2)COC2(CCN(C4CCC4)CC2)O3)cc1)N1CC[C@H](F)C1 [Example 68] |  | 184 to 186 °C |  |  |  | Ki (human H3 receptor; [6]): < 200 nM; Ki [1, 7]: < 200 nM
11 | O=C(Nc1ccc2c(c1)COC1(CCN(C3CCC3)CC1)O2)c1ccccn1 [Example 152] |  | 172 to 174 °C |  | < 200 | < 200 | 
12 | O=C(c1ccc(-c2ccc3c(c2)COC2(CCN(C4CCC4)CC2)O3)cc1)N1CC[C@@H](F)C1 [Example 69] |  | 185 to 186 °C |  |  |  | Ki (human H3 receptor; [6]): < 200 nM; Ki [1, 7]: < 200 nM
13 | Clc1ccc(COc2ccc3c(c2)CCC2(CCN(C4CCC4)CC2)O3)cc1 [Example 288] |  | 115 to 116 °C |  | < 200 | < 200 | 
14 | c1csc(CNc2ccc3c(c2)COC2(CCN(C4CCC4)CC2)O3)c1 [Example 344] |  | 112 to 113 °C |  | < 200 | < 200 | 
15 | OCc1cn(-c2ccc3c(c2)COC2(CCN(C4CCC4)CC2)O3)c2ccccc12 [Example 84] |  | 138 to 141 °C |  |  |  | Ki (human H3 receptor; [6]): < 200 nM; Ki [1, 7]: < 200 nM
16 | O=C(Nc1ccc2c(c1)COC1(CCN(C3CCC3)CC1)O2)c1ccncc1F [Example 277] |  | 168 to 169 °C |  | < 200 | < 200 | 
17 | CN(C)C(=O)CC1CCN(c2ccc3c(c2)COC2(CCN(C4CCC4)CC2)O3)CC1 [Example 586] | < 200 | 68.5 to 70.2 °C | < 200 |  |  | 
18 | CN(C)C(=O)c1cccc(COc2ccc3c(c2)CCC2(CCN(C4CCC4)CC2)O3)n1 [Example 670] | < 200 | 167 to 170 °C | < 200 |  |  | 
19 | O=c1ccc(Oc2ccc3c(c2)CCC2(CCN(C4CCC4)CC2)O3)c[nH]1 [Example 485] |  | 284 to 286 °C |  |  |  | Ki (human H3 receptor; read-out: Human H3 Ki): < 200 nM; Ki ([1]; read-out: Rat H3 kI): < 200 nM
20 | COCc1cc(-c2ccc3c(c2)COC2(CCN(C4CCC4)CC2)O3)c[nH]c1=O [Example 805] | < 200 | 212 to 214 °C | < 200 |  |  | 

Row | Compound | Ki (human H3 receptor; [2]) [nM] | melting point | Ki [1, 3] [nM] | Ki (human H3 receptor; [4]) [nM] | Ki [1, 5] [nM] | further results
21 | CC(=O)N(Cc1ccccc1)c1ccc2c(c1)COC1(CCN(C3CCC3)CC1)O2 [Example 290] |  | 115 to 117 °C |  | < 200 | < 200 | 
22 | c1ccc(COc2cc(-c3ccc4c(c3)COC3(CCN(C5CCC5)CC3)O4)ccn2)cc1 [Example 548] |  | 120 to 125 °C |  |  |  | Ki (human H3 receptor; read-out: Human H3 Ki): < 200 nM; Ki ([1]; read-out: Rat H3 kI): < 200 nM
23 | O=S1(=O)CCC(Oc2ccc3c(c2)CCC2(CCN(C4CCC4)CC2)O3)CC1 [Example 467] |  | 239 to 241 °C and 239 to 240 °C |  |  |  | Ki (human H3 receptor; read-out: Human H3 Ki): < 200 nM; Ki ([1]; read-out: Rat H3 kI): < 200 nM
24 | CNC(=O)c1cnc(-c2ccc3c(c2)CCC2(CCN(C4CCC4)CC2)O3)s1 [Example 218] |  | 201 to 203 °C |  | < 200 | < 200 | 
25 | O=C(C1CCCN(c2ccc3c(c2)CCC2(CCN(C4CCC4)CC2)O3)C1)N1CCCC1 (stereo not drawn) [Example 451] |  | 305 to 307 °C |  |  |  | Ki (human H3 receptor; read-out: Human H3 Ki): < 200 nM; Ki ([1]; read-out: Rat H3 kI): < 200 nM
26 | CNC(=O)c1ccc(-c2ccc3c(c2)COC2(CCN(C4CCC4)CC2)O3)cc1 [Example 33] |  | 198 to 199 °C |  |  |  | Ki (human H3 receptor; [6]): < 200 nM; Ki [1, 7]: < 200 nM
27 | c1cc2c(cc1C1CCSCC1)COC1(CCN(C3CCC3)CC1)O2 [Example 480] |  | 153 to 155 °C |  |  |  | Ki (human H3 receptor; read-out: Human H3 Ki): < 200 nM; Ki ([1]; read-out: Rat H3 kI): < 200 nM
28 | CC1CN=C(CCc2ccc3c(c2)COC2(CCN(C4CCC4)CC2)O3)O1 (stereo not drawn) [Example 691] | < 200 | 61 to 63 °C | < 200 |  |  | 
29 | COc1cc(Oc2ccc3c(c2)CCC2(CCN(C4CCC4)CC2)O3)ccn1 [Example 486] |  | 125 to 127 °C |  |  |  | Ki (human H3 receptor; read-out: Human H3 Ki): < 200 nM; Ki ([1]; read-out: Rat H3 kI): < 200 nM
30 | O=C(NCC(F)(F)F)N1CCN(c2ccc3c(c2)COC2(CCN(C4CCC4)CC2)O3)CC1 [Example 295] |  | 182.5 to 183.5 °C |  | < 200 | < 200 | 
31 | O=c1ccc(-c2ccc3c(c2)COC2(CCN(C4CCOCC4)CC2)O3)c[nH]1 [Example 723] | < 200 | 230 to 232 °C | < 200 |  |  | 
32 | CNC(=O)c1cc(-c2ccc3c(c2)COC2(CCN(C4CCC4)CC2)O3)ccc1Cl [Example 584] | < 200 | 198 to 200 °C | < 200 |  |  | 
33 | O=C(Nc1ccc2c(c1)COC1(CCN(C3CCC3)CC1)O2)c1ccncc1 [Example 150] |  | 180 to 182 °C |  | < 200 | < 200 | 
34 | COc1ncc(-c2ccc3c(c2)COC2(CCN(C4CCC4)CC2)O3)c(OC)n1 [Example 662] | < 200 | 250 °C (dec.) | < 200 |  |  | 
35 | O=c1oc2ccccc2n1-c1ccc2c(n1)COC1(CCN(C3CCC3)CC1)O2 [Example 161] |  | 67 to 70 °C |  | < 200 | 200 to 1000 | 
36 | COc1ccc(-c2ccc3c(c2)COC2(CCN(C4CCOC4)CC2)O3)cn1 (stereo not drawn) [Example 725] | 200 to 1000 | 139 to 141 °C | 200 to 1000 |  |  | 
37 | O=C1CC(c2ccc3c(c2)COC2(CCN(C4CCC4)CC2)O3)CCN1 (stereo not drawn) [Example 565] |  | 182 to 184 °C |  |  |  | Ki (human H3 receptor; read-out: Human H3 Ki): < 200 nM; Ki ([1]; read-out: Rat H3 kI): < 200 nM
38 | N#Cc1cnc(Nc2ccc3c(c2)COC2(CCN(C4CCC4)CC2)O3)s1 [Example 128] |  | 217 to 218 °C |  |  |  | Ki (human H3 receptor; [6]): < 200 nM; Ki [1, 7]: < 200 nM
39 | Cc1cc2c(cc1-c1ccc(=O)[nH]c1)COC1(CCN(C3CCC3)CC1)O2 [Example 543] |  | 239 to 240 °C |  |  |  | Ki (human H3 receptor; read-out: Human H3 Ki): < 200 nM; Ki ([1]; read-out: Rat H3 kI): 200 to 1000 nM
40 | CNC(=O)c1ccc(-c2cc(F)c3c(c2)COC2(CCN(C4CCC4)CC2)O3)cc1F [Example 142] |  | 156 to 158 °C |  | < 200 | < 200 | 
